Source: publication PMC11480511 (Scientific Reports, 2024)
≈ marks a conversion by molar mass, not a printed value. Like-named read-outs stand apart in the source and are kept apart here.

Tests used:
786-0 = assay: NCI single-dose growth inhibition screen; format: cell-based; details: Homo sapiens; Renal Cancer 786-0; single dose 10^−5 M
HL-60(TB) = assay: NCI single-dose growth inhibition screen; format: cell-based; details: Homo sapiens; Leukemia HL-60(TB); single dose 10^−5 M
M14 = assay: NCI single-dose growth inhibition screen; format: cell-based; details: Homo sapiens; Melanoma M14; single dose 10^−5 M
Experimental: Following the guidelines established by the drug evaluation department of the National Cancer Institute (NCI), USA, all target compounds 3a–l were examined against 60 cancer cell lines at a single concentration of 10 µM.
The anti-cancer potential of the tested compounds was evaluated at the National cancer institute (NCI), USA, against 9 panels of 60 various cell lines derived from nine human tumours available usually at NCI library. The procedures for the screening were described in details in NCI website (dttp://www.dtp.nci.nih.gov.) and were done according to NCI protocols[60] . The anticancer screening was carried out at single dose of 10^−5 M, NCI, Bethesda, USA. The results obtained as growth inhibition (%).

SF-539 = assay: NCI single-dose growth inhibition screen; format: cell-based; details: Homo sapiens; CNS Cancer SF-539; single dose 10^−5 M
RXF 393 = assay: NCI single-dose growth inhibition screen; format: cell-based; details: Homo sapiens; Renal Cancer RXF 393; single dose 10^−5 M
A549/ATCC = assay: NCI single-dose growth inhibition screen; format: cell-based; details: Homo sapiens; Non-Small Cell Lung Cancer A549/ATCC; single dose 10^−5 M
SN12C = assay: NCI single-dose growth inhibition screen; format: cell-based; details: Homo sapiens; Renal Cancer SN12C; single dose 10^−5 M
IGROV1 = assay: NCI single-dose growth inhibition screen; format: cell-based; details: Homo sapiens, IGROV-1; Ovarian Cancer IGROV1; single dose 10^−5 M
UACC-257 = assay: NCI single-dose growth inhibition screen; format: cell-based; details: Homo sapiens; Melanoma UACC-257; single dose 10^−5 M
topoisomerase IIβ = molecular target: T1, topoisomerase IIβ (Homo sapiens, UniProt Q02880); assay: Topoisomerase II inhibition, human DNA topoisomerase Elisa kit; format: biochemical; details: ± SEM; read-out: Topoisomerase II IC50 µM ± SEM
T1 construct: purchased
T1 sequence (Q02880 whole entry): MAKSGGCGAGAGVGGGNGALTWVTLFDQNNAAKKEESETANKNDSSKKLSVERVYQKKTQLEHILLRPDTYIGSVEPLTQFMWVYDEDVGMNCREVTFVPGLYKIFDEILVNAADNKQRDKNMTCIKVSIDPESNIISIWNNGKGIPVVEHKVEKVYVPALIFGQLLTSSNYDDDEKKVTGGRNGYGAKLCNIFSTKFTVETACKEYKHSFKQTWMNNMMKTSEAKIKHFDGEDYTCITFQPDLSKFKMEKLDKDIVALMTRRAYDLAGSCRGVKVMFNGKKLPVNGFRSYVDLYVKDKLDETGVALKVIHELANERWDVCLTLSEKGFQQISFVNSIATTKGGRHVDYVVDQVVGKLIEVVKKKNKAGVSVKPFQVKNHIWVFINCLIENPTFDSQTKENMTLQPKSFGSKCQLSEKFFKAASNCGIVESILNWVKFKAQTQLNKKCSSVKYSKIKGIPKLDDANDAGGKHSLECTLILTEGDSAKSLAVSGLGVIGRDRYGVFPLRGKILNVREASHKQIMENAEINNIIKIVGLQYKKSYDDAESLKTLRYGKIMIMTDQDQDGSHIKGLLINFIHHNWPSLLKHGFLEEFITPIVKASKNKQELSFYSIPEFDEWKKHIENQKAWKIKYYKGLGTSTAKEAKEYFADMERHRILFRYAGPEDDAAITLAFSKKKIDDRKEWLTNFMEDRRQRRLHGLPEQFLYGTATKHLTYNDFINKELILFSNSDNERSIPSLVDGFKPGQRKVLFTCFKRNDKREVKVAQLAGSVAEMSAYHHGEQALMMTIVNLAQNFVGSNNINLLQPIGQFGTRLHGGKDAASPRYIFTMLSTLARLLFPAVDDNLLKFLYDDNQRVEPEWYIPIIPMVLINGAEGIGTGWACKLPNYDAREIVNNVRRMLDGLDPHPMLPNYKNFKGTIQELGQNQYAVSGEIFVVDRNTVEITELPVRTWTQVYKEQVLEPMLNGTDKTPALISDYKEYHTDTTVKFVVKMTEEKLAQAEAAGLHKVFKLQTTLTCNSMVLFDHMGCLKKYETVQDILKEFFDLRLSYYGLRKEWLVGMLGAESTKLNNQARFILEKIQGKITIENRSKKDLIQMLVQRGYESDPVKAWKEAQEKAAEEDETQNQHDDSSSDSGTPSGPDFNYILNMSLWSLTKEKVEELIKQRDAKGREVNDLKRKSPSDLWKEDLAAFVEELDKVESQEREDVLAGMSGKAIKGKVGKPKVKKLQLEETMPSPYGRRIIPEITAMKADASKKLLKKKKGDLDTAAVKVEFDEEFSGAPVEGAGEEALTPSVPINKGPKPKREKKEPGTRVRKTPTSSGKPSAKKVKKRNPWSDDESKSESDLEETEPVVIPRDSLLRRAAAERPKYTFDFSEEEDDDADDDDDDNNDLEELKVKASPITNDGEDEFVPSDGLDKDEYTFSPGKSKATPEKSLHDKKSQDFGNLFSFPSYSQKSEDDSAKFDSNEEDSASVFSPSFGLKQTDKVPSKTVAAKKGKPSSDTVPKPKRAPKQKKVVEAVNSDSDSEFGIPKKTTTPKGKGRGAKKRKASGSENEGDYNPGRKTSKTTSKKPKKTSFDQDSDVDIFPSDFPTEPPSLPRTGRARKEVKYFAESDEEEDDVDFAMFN
Experimental: Two folds of serial dilution was accomplished after standards and the tested compounds were dissolved in sample diluent. Horseradish peroxidase (HRP-avidin) and biotin-conjugated antibody were diluted 10 times each. Each well received 100 µL of each concentration of the standard or test chemicals, which were then added and incubated at 37 °C for 60 min. […] The microtiter plate was rinsed three times and given room to aspirate. After that, the plate was incubated at 37 °C for 60 min with 100 µL of HRP-avidin solution added to each well. After that, the plate was aspirated and cleaned 5 times. Each well received 90 µL of TMB substrate, and the plate was incubated for 30 min. at 37 °C in a light-protected environment. Finally, stop solution (50 µL) was loaded, and within 5 min, the absorbance at 450 nm was measured spectrophotometrically.
Topoisomerase enzyme assay
Topoisomerase I and II inhibitory activity […]
topoisomerase IIβ inhibitory activity utilizing the human DNA topoisomerase Elisa kit.
Standards and the tested compound were dissolved in sample diluent and 2 folds serial dilution was achieved. Biotin-conjugated antibody and avidin conjugated Horseradish Peroxidase (HRP-avidin) were diluted to 10 folds. 100 μL of each concentration of standard or test compound were added to each well. Incubate at 37 °C for 1 h. The liquid in each well was removed. 10 0 μL of Biotin-conjugated antibody solution was added to each well followed by incubation for 1 h at 37 °C. The microtiter plate was allowed to aspirate and washed 3 times. 100 μL of avidin conjugated Horseradish Peroxidase (HRP -avidin) solution was added to each well and the plate was incubated for 1 h at 37 °C. The plate was aspirated and washed 5 times. 90 μL of TMB substrate were added to each well and the plate was incubated for 30 min at 37 °C and protected from light. 50 μL stop so lution was added. The absorbance was measured spectrophotometrically within 5 min at 450 nm .

HCT-116 = assay: NCI single-dose growth inhibition screen; format: cell-based; details: Homo sapiens; Colon Cancer HCT-116; single dose 10^−5 M
UO-31 = assay: NCI single-dose growth inhibition screen; format: cell-based, human; details: single dose 10^−5 M; for inhibition at 10 µM: Homo sapiens, UO-31, Renal Cancer UO-31
SK-MEL-2 = assay: NCI single-dose growth inhibition screen; format: cell-based; details: Homo sapiens; Melanoma SK-MEL-2; single dose 10^−5 M
HOP-92 = assay: NCI single-dose growth inhibition screen; format: cell-based; details: Homo sapiens; Non-Small Cell Lung Cancer HOP-92; single dose 10^−5 M
TK-10 = assay: NCI single-dose growth inhibition screen; format: cell-based; details: Homo sapiens; Renal Cancer TK-10; single dose 10^−5 M
MCF7 = assay: NCI single-dose growth inhibition screen; format: cell-based, human; details: single dose 10^−5 M; for Growth Inhibition (%): Breast Cancer MCF7; for inhibition at 10 µM: Homo sapiens, MCF7, Breast Cancer MCF7
HS 578T = assay: NCI single-dose growth inhibition screen; format: cell-based; details: Homo sapiens; Breast Cancer HS 578T; single dose 10^−5 M
E. coli ATCC 25,922 = assay: Antibacterial screening, agar cup diffusion method; format: cell-based; details: read-out: Minimum inhibitory concentrations (MIC, µM) E. coli ATCC 25,922
Experimental: Anti-bacterial activity of the recently synthesized compounds 3a-k was evaluated at AUMC (Assiut University Mycological Centre), Assiut, Egypt. Assays were done against Gram-negative strains of K. pneumoniae (ATCC 100310, E. coli (ATCC 25922), Pseudomonas aeruginosa (ATCC 27853) and the Gram-positive S. aureus (ATCC 6538) strain utilizing standard agar cup diffusion method. The isolates from the four bacterial species examined were kept in TSB (Trypticase Soya Broth, Becton and Dickinson) with 10% glycerol at -70 °C and then subcultured on TSA (Trypticase Soya Agar, Becton and Dickinson) and TSB for 24 h at 37 °C former to inoculation. Bacterial isolates were then plated on sterile petri plates with 1 × 10^8 CFU/mL (0.5 McFarland turbidity) and 20 mL of Mueller Hinton Agar media (Oxoid) was then loaded. To ensure that the microorganisms were evenly dispersed, the plates were gently rotated before being left to harden on a level surface. Four equally spaced spherical-shaped wells (10 mm diameter) were painstakingly drilled using a sterilized cork bore after media solidification. All tested compounds under test underwent two-fold serial dilutions in a sequential manner. Three replications of 100 µL of each concentration were added to a well using a micropipette. Plates were then incubated for 24-hour at 37 °C. The average of the inhibition zones was then calculated. To determine the MICs, the natural logarithm of each diluted test substance’s concentration was plotted against the average area of the related inhibition zone. Following that, a regression line was created and the intercept on the ‘ln concentration” axis was determined, and the antilogarithm was calculated to indicate the MIC value[34],[63].

HOP-62 = assay: NCI single-dose growth inhibition screen; format: cell-based; details: Homo sapiens; Non-Small Cell Lung Cancer HOP-62; single dose 10^−5 M
[1] = Escherichia coli, ATCC25, Gram –ve strain

## O=C(O)c1cn(C2CC2)c2cc(N3CCN(C(=O)CCCN4C(=O)SC(=Cc5ccccc5)C4=O)CC3)c(F)cc2c1=O [3a, 7-[4-[4-[5-benzylidene-2,4-dioxo-thiazolidin-3-yl]butanoyl]piperazin-1-yl]-1-cyclopropyl-6-fluoro-4-oxo-quinoline-3-carboxylic acid]
786-0
  inhibition at 10 µM: 21.2%
HL-60(TB)
  inhibition at 10 µM: < 0%
M14
  inhibition at 10 µM: 8.2%
SF-539
  inhibition at 10 µM: 8.9%
RXF 393
  inhibition at 10 µM: < 0%
A549/ATCC
  inhibition at 10 µM: 14.2%
SN12C
  inhibition at 10 µM: 2.6%
IGROV1
  inhibition at 10 µM: 8.5%
UACC-257
  inhibition at 10 µM: 21.1%
Topoisomerase IIβ
  IC50: 35.6 ± 1.94 µM
HCT-116
  inhibition at 10 µM: 19.3%
UO-31
  inhibition at 10 µM: 53.2%
UO-31; Renal Cancer UO-31
  Growth Inhibition (%): 36.0%
SK-MEL-2
  inhibition at 10 µM: 10.1%
HOP-92
  inhibition at 10 µM: < 0%
TK-10
  inhibition at 10 µM: < 0%
MCF7
  Growth Inhibition (%): 55.9%
  inhibition at 10 µM: 55.9%
HS 578T
  inhibition at 10 µM: 8.8%
E. coli ATCC 25,922; [1]
  MIC: 0.2 µM (≈ 0.121 µg/mL)
HOP-62
  inhibition at 10 µM: < 0%

## O=C(O)c1cn(C2CC2)c2cc(N3CCN(C(=O)CCCN4C(=O)SC(=Cc5cccc6ccccc56)C4=O)CC3)c(F)cc2c1=O [3j, 1-cyclopropyl-6-fluoro-7-[4-[4-[5-(1-naphthylmethylene)-2,4-dioxo-thiazolidin-3-yl]butanoyl]piperazin-1-yl]-4-oxo-quinoline-3-carboxylic acid]
786-0
  inhibition at 10 µM: 18.5%
HL-60(TB)
  inhibition at 10 µM: < 0%
M14
  inhibition at 10 µM: 16.7%
SF-539
  inhibition at 10 µM: 9.9%
RXF 393
  inhibition at 10 µM: 11.2%
A549/ATCC
  inhibition at 10 µM: 9.3%
SN12C
  inhibition at 10 µM: 24.1%
IGROV1
  inhibition at 10 µM: 25.9%
UACC-257
  inhibition at 10 µM: 19.1%
Topoisomerase IIβ
  IC50: 39.8 ± 2.17 µM
HCT-116
  inhibition at 10 µM: 10.6%
UO-31
  inhibition at 10 µM: 48.1%
SK-MEL-2
  inhibition at 10 µM: < 0%
HOP-92
  inhibition at 10 µM: 13.3%
TK-10
  inhibition at 10 µM: < 0%
MCF7
  Growth Inhibition (%): 41.7%
  inhibition at 10 µM: 41.7%
HS 578T
  inhibition at 10 µM: 30.2%
E. coli ATCC 25,922; [1]
  MIC: 1.94 to 2.6 µM (≈ 1.27 to 1.7 µg/mL)
E. coli ATCC 25,922; Gram –ve strain
  MIC: 2.60 µM (≈ 1.7 µg/mL)
HOP-62
  inhibition at 10 µM: 15.1%

## O=C(O)c1cn(C2CC2)c2cc(N3CCN(C(=O)CCCN4C(=O)S/C(=C\c5ccc(F)cc5)C4=O)CC3)c(F)cc2c1=O [3i]
786-0
  inhibition at 10 µM: 18.2%
HL-60(TB)
  inhibition at 10 µM: < 0%
M14
  inhibition at 10 µM: 4.6%
SF-539
  inhibition at 10 µM: 5.8%
RXF 393
  inhibition at 10 µM: < 0%
A549/ATCC
  inhibition at 10 µM: 10.4%
SN12C
  inhibition at 10 µM: 2.2%
IGROV1
  inhibition at 10 µM: 1.3%
UACC-257
  inhibition at 10 µM: 12.3%
Topoisomerase IIβ
  IC50: 15 ± 0.81 µM
HCT-116
  inhibition at 10 µM: 4.5%
UO-31
  inhibition at 10 µM: 21.7%
SK-MEL-2
  inhibition at 10 µM: < 0%
HOP-92
  inhibition at 10 µM: 5.7%
TK-10
  inhibition at 10 µM: 4.7%
MCF7
  inhibition at 10 µM: 1.3%
HS 578T
  inhibition at 10 µM: 3%
E. coli ATCC 25,922; [1]
  MIC: 0.54 µM (≈ 0.336 µg/mL)
HOP-62
  inhibition at 10 µM: 2.9%
